The source of these data is patent US7595336B2, “Isatine derivatives with neurotrophic activity” (Neurosearch A/S, priority 2002, dated 2009).

One assay deals with CREB. To be noted: after 5 minutes stimulation (not shown). How it is done: The cyclic AMP-responsive element binding protein (CREB) is a post-translationally activated transcription factor that has been implicated in numerous neuronal functions including cell survival, differentiation and neurotransmission.
Approximately 7.5×10^5 PC12 cells per well were plated in collagen coated 6-well plates in DMEM with 0.75% FCS and 0.75% DHS and incubated for 48 hours. Cells were then further starved for 2 hours in serum free DMEM before stimulation with the indicated compounds for 5, 10 or 20 minutes. Cells were harvested in 1× heated sample buffer (2% SDS, 400 mM Tris, pH 8.0, 10 mM DTT and 0.25 mM Na3VO4) and the cell lysates were electrophoresed on 8-18% gradient SDS gels, which were electroblotted to PVDF membranes.
Phosphorylated CREB were immunodetected by using rabbit anti-Phospho-CREB (UpState Biotechnology #06-519) followed by HRP-linked anti-rabbit antibody (Amersham Life Science #NA 934). Bands were detected by chemilumininescence using the ECL system (Amersham).

The test system of a further assay is the ERKs (ERK1 and ERK2). To be noted: 1-3 μM; PC12 cells; 24 hours with NGF. How it is done:
(§1) Approximately 200,000 PC12 cells were plated in a 24 well plate in DMEM with 7.5% FCS and 7.5% DHS and incubated ON.
(§2) Total cell lysate was electrophoresed on 8-18% gradient SDS gels which were electroblotted to PVDF membranes. Phosphorylated ERK1 and ERK2 were immunodetected by using mouse anti-Phospho-p44/p42 MAP kinase E10 mAb (New England Biolabs #9106) and HRP-linked anti-mouse antibody. Phosphorylated Akt kinase was immunodetected by using rabbit phospho-specific Akt (Ser473) antibody (New England Biolabs # 9271) and HRP-linked anti-rabbit antibody. Bands were detected by chemilumininescence using the ECL system (Amersham).

For the next assay, the system named is Akt kinase. To be noted: 1-3 μM; PC12 cells; 24 hours with NGF. How it is done:
as §1, §2

Assay [1] concerns dopaminergic neurons from rat E14 ventral mesencephali. To be noted: 1 μM; E14 rat VM; 7 days in culture.
Protocol: Embryonic rat brains (Wistar; E14) were isolated under sterile conditions placed in chilled Gey's balanced salt solution (GIBCO) with glucose (6.5 mg/ml).
The ventral mesencephali were dissected out, cut into small tissue pieces, placed in Neurobasal medium with B27 supplement and gently pressed through a 80 μm Nitex filter. The cells were counted using a hemocytometer and plated in a 6 well multi-dish at a density of approximately 2.0×10^6 cells/well. Culture dishes were pre-coated with poly-D-lysine.
After 1 hour, the medium was removed and fresh medium added (1.5 ml/well). […] Untreated cultures served as controls. The medium was changed every other day and antimitotics and antibiotics were not used at any stage.
After 7 days in culture, cultures were then immunostained for tyrosine hydroxylase (TH). Briefly, the cells were washed in 0.05M tris-buffered saline (TBS, pH 7.4) containing 1% Triton X-100 for 3×15 minutes and incubated with 10% foetal bovine serum (FBS, Life Technologies) in TBS for 30 minutes. The cells were then incubated for 24 hours at 4° C. with monoclonal mouse anti-TH antibody (Boehringer Mannheim) diluted 1:600 in TBS with 10% FBS. After rinsing in TBS with 1% Triton X-100 for 3×15 minutes, cells were incubated for 60 minutes with biotinylated anti-mouse IgG antibody (Amersham) diluted 1:200 in TBS with 10% FBS. […] TH-immunoreactive (ir) cells were counted manually.
Assay [2] has as its system PC12 cells. Kind of assay: Survival of differentiated PC12 cells in serum-free medium (MTS). It counts as cell-based. To be noted: for Survival Effects on Differentiated PC12 Cells in Serum-free Medium (% of 3 nM NGF): 4 days incubation, MTS; for Rescue of PC12 cells in serum-free medium: viability as reduction of MTS. How it is done: In this experiment the protective effect of the compounds on the survival of the pheochromocytoma cell line PC12 deprived of other survival factors were assessed following differentiation of the cells to a neuron-like phenotype.
Cells were seeded in collagen coated 96 well plates at a cell density of 8,000/cm^2 in DMEM with 7.5% Foetal Calf Serum (FCS), 7.5% Donor Horse Serum (DHS) and 2 nM NGF and cultured for 6 days. The medium was then changed to DMEM without serum supplemented with the compound in the indicated concentrations. As a positive control, parallel wells receiving serum-free DMEM without addition of vehicle […] 3 nM NGF were included.
After 4 days of incubation, cell viability was evaluated by using MTS (3-(4,5-dimethylthiazol-2-yl)-5-(3-carboxymethoxyphenyl)-2-(4-sulfonyl)2H-tetrazolium) which is reduced by metabolically active cells. Data are expressed as % of the response seen with 3 nM NGF corrected for residual MTS reduction activity in the parallel serum-free cultures (“% of NGF control”).

The test system of assay [3] is PC12 cells. To be noted: two days. How it is done:
In this experiment the ability of the compounds to potentiate NGF-induced neurite outgrowth in PC12 cells was assessed.
PC12 cells were seeded in tissue culture plates coated with collagen at a cell density of 15,000/cm^2 in DMEM with 7.5% FCS and 7.5% DHS. Next day the medium was changed to medium supplemented with the NS compound in the absence or presence of NGF.
Two days after the medium change, cells were fixed in 4% paraformaldehyde and stained for neurofilament. Cells were fixed by in tissue culture plates by incubation in 4% paraformaldehyde in PBS followed permeabilization in 0.05% Triton-X100 in the presence of 10% DHS to block non-specific binding sites. After washing, the plates were incubated with anti-neurofilament (NF) antibody (clone RT97) from Boehringer diluted 1:200 in 0.05% Triton-X100/10% DHS followed by incubation with biotinylated anti-mouse immunoglobulin RPN1001 (Amersham) diluted 1:200. NF-immunoreactive cells were stained using the ABC-complex/HRP kit K0355 (DAKO) and 3,3-diaminobenzidine tetrahydrochloride (DAB) as substrate.
Estimation of total cell number per well, as well as the total neurite length was done using unbiasedly 2D stereology (CAST-grid system connected to a Olympus BH-2 microscope).

Assay [4] has as its system dopaminergic neurons from pig E28 ventral mesencephali. To be noted: 1 μM; E28 pig VM slice cultures; 21 days in vitro.
Protocol: Ventral mesencephali (VM) were isolated from porcine embryos (E28) under sterile conditions, chopped into 400 μm slices and placed in chilled Gey's balanced salt solution (GIBCO) with glucose (6.5 mg/ml).
In brief, slices were placed on semiporous membranes (Millipore, 0.3 μm; 4 slices/membrane) placed as inserts in 6-well plates (Costar) with serum containing medium (Gibco BRL). Each well contained 1 ml medium (50% Optimem, 25% horse serum, 25% Hank's balanced salt solution (all GIBCO)) supplemented with D-glucose to a final concentration of 25 mM.
At day 3, the medium was replaced by defined serum-free medium (Neurobasal medium with B27 supplement from Life Technologies). The cultures were grown in an incubator with 5% CO2 at 36° C. for 21 days after which the sections were immunostained for TH as described in Example 4. […] Untreated cultures served as controls. The medium was changed twice a week and antimitotics and antibiotics were not used at any stage.
The area of the culture slice was delineated and a counting frame was randomly placed to mark the first area to be sampled.
Assay [5] relates to transient global ischaemia in gerbils (hippocampal CA1-layer damage). To be noted: gerbil; 4 minutes ischaemia; 2×30 mg/kg ip. after the insult; four days later.
Protocol: Gerbils were anaesthetised with halothane, right and left carotid arteries located and occluded for 4 minutes. Animals were kept at normal body temperature before and after the operation using heating lamps. During the operation, the gerbils were placed on heating pads, the body temperature was controlled and maintained at 37±0.5° C.
Four days later, the animals were sacrificed, brains removed and cooled to −70° C. Thereafter, the brains were sectioned in 20 μm thick sections of which 5-7 with hippocampal tissue were selected and stained with hematoxylin-eosin.
The degree of hippocampal damage was categorised into one of four groups:
Group 1: no damage in the CA1-layer;
Group 2: the CA1-layer partly damaged;
Group 3: the CA1-layer completely damaged; and
Group 4: damage in more then just the CA1-layer. The total ischaemia score was obtained as the sum of scores in the right- and left hemisphere. Kendall's tau test was used for statistic evaluation.

With `CN1CCc2c(-c3ccc(Cl)cc3)cc3c(c2C1)NC(=O)C3=NO.Cl` [Compound G-1, 5-(4-Chlorophenyl)-8-methyl-6,7,8,9-tetrahydro-1-H-pyrrolo[3.2-h]isoquinoline-2,3-dione-3-oxime hydrochloric acid salt], the “Combined effect of NGF and compound on CREB phosphorylation” value in the assay with CREB is given as “additive effect”. The “Effect on NGF-induced phosphorylation of the ERKs” value with the ERKs (ERK1 and ERK2) is given as “potentiate NGF-induced phosphorylation”. Moreover, the “Effect on NGF-induced phosphorylation of the Akt kinase” value in the assay with Akt kinase is “potentiate NGF-induced phosphorylation”. In addition, the “More TH-immunoreactive cells compared to untreated control cultures” value in assay [1] came out at 81%; in assay [4], 37%. The “Survival Effects on Differentiated PC12 Cells in Serum-free Medium (% of 3 nM NGF)” value with PC12 cells [2] (0.1 μM) is given as 11.09 ± 1.42 % of 3 nM NGF; in the assay on PC12 cells [2] (0.2 μM) it was 12.78 ± 2.01 % of 3 nM NGF; in the assay with PC12 cells [2] (0.5 μM), 28.62 ± 1.77 % of 3 nM NGF; in the assay on PC12 cells [2] (0.75 μM), 32.05 ± 3.36 % of 3 nM NGF; in the assay with PC12 cells [2] (1 μM) it was 52.60 ± 3.40 % of 3 nM NGF; in the assay with PC12 cells [2] (2 μM), 60.47 ± 2.26 % of 3 nM NGF. Moreover, the results for the “Survival Effects on Differentiated PC12 Cells in Serum-free Medium (% of 3 nM NGF)” value in the assay on PC12 cells [2] (5 μM), in the assay with PC12 cells [2] (7.5 μM) and with PC12 cells [2] (10 μM) were 74.85 ± 4.67 % of 3 nM NGF, 62.08 ± 3.70 % of 3 nM NGF and 63.80 ± 4.09 % of 3 nM NGF, respectively. The “Rescue of PC12 cells in serum-free medium” value in the assay on PC12 cells [2] was “dose-dependent rescue”. In addition, the “Effect on neurite outgrowth in PC12 cells, compound alone” value with PC12 cells [3] (1 and 3 μM, without NGF) was “some effect on neurite outgrowth”. For the same compound, in the assay on PC12 cells [3] (with NGF), the “Potentiation of NGF-induced neurite outgrowth in PC12 cells” value is “significantly potentiate NGF-induced neurite outgrowth”.
Regarding `O=C1Nc2ccc(-c3ccc(Cl)cc3)cc2C1=NO` [Compound G-3, 5-(4-Chlorophenyl)isatin-3-oxime], the “Survival Effects on Differentiated PC12 Cells in Serum-free Medium (% of 3 nM NGF)” value in the assay on PC12 cells [2] (0.1 μM) is −0.34 ± 1.59 % of 3 nM NGF; in the assay with PC12 cells [2] (0.2 μM), 23.83 ± 3.61 % of 3 nM NGF; in the assay with PC12 cells [2] (0.5 μM), 28.20 ± 2.55 % of 3 nM NGF; with PC12 cells [2] (0.75 μM), 30.66 ± 3.83 % of 3 nM NGF; in the assay with PC12 cells [2] (1 μM), 36.11 ± 3.02 % of 3 nM NGF; with PC12 cells [2] (2 μM) it was 41.53 ± 3.00 % of 3 nM NGF. The “Survival Effects on Differentiated PC12 Cells in Serum-free Medium (% of 3 nM NGF)” value was 49.63 ± 4.67 % of 3 nM NGF with PC12 cells [2] (5 μM), 67.60 ± 5.54 % of 3 nM NGF with PC12 cells [2] (7.5 μM) and 72.23 ± 4.34 % of 3 nM NGF in the assay with PC12 cells [2] (10 μM). The “Rescue of PC12 cells in serum-free medium” value with PC12 cells [2] is “dose-dependent rescue”.
For `Cl.O=C1Nc2c(cc(-c3ccc(Cl)cc3)c3c2CCCC3)C1=NO` [Compound G-2, 5-(4-Chlorophenyl)-6,7,8,9-tetrahydro-1-H-pyrrolo[3.2-h]naphthalene-2,3-dione-3-oxime hydrochloric acid salt], the “Animals with no or only partially damage in the CA1 neurons of the hippocampus” value in assay [5] is recorded as “≈ 50%”. Further, the “Survival Effects on Differentiated PC12 Cells in Serum-free Medium (% of 3 nM NGF)” value in the assay with PC12 cells [2] (0.1 μM) is on record as 7.77 ± 1.86 % of 3 nM NGF; in the assay with PC12 cells [2] (0.2 μM), 16.58 ± 4.36 % of 3 nM NGF; with PC12 cells [2] (0.5 μM) it was 17.30 ± 4.43 % of 3 nM NGF; with PC12 cells [2] (0.75 μM), 23.54 ± 1.60 % of 3 nM NGF; in the assay on PC12 cells [2] (1 μM), 27.63 ± 6.91 % of 3 nM NGF; with PC12 cells [2] (2 μM) it was 33.31 ± 5.22 % of 3 nM NGF. The “Survival Effects on Differentiated PC12 Cells in Serum-free Medium (% of 3 nM NGF)” value in the assay with PC12 cells [2] (5 μM) is given as 50.25 ± 4.28 % of 3 nM NGF; with PC12 cells [2] (7.5 μM), 54.83 ± 4.37 % of 3 nM NGF; with PC12 cells [2] (10 μM) it was 74.66 ± 5.70 % of 3 nM NGF. Also, the “Rescue of PC12 cells in serum-free medium” value in the assay with PC12 cells [2] is listed as “dose-dependent rescue”.
